Patent US8680339B2, “Herbicides” (Syngenta Limited, priority 2009, dated 2014)

Legend:
Assay type in all cases: in vivo
[1] = system: Echinochloa crus-galli (ECHCG); assay: Post-emergence herbicidal activity, glasshouse pot test; details: Echinochloa crus-galli, 312 h, rate 250 g/ha, evaluated after 13 days, 100=total damage to plant, 0=no damage to plant
Protocol: (§1) Seeds of a variety of test species were sown in standard soil in pots. After cultivation for one day (pre-emergence) or after 8 days cultivation (post-emergence) under controlled conditions in a glasshouse (at 24/16° C., day/night; 14 hours light; 65% humidity), the plants were sprayed with an aqueous spray solution derived from the formulation of the technical active ingredient in acetone/water (50:50) solution containing 0.5% Tween 20 (polyoxyethelyene sorbitan monolaurate, CAS RN 9005-64-5). The test plants were then grown in a glasshouse under controlled conditions in a glasshouse (at 24/16° C., day/night; 14 hours light; 65% humidity) and watered twice daily. After 13 days for pre and post-emergence, the test was evaluated (100=total damage to plant; 0=no damage to plant). Test Plants: Lolium perenne (LOLPE), Alopecurus myosuroides (ALOMY), Echinochloa crus-galli (ECHCG), and Avena fatua (AVEFA). Post-Emergence Activity

[2] = system: Alopecurus myosuroides (ALOMY); assay: as above; details: Alopecurus myosuroides, 312 h, rate 250 g/ha, evaluated after 13 days, 100=total damage to plant, 0=no damage to plant
Protocol: as §1

Avena fatua (AVEFA) [3] = assay: as above; details: Avena fatua, 312 h, rate 250 g/ha, evaluated after 13 days, 100=total damage to plant, 0=no damage to plant
Protocol: as §1

Lolium perenne (LOLPE) [4] = assay: as above; details: Lolium perenne, 312 h, rate 250 g/ha, evaluated after 13 days, 100=total damage to plant, 0=no damage to plant
Protocol: as §1

[5] = system: Echinochloa crus-galli (ECHCG); assay: Pre-emergence herbicidal activity, glasshouse pot test; details: Echinochloa crus-galli, 312 h, rate 250 g/ha, evaluated after 13 days, 100=total damage to plant, 0=no damage to plant
Protocol: as §1, with “Pre-Emergence” for “Post-Emergence”

[6] = system: Alopecurus myosuroides (ALOMY); assay: as above; details: Alopecurus myosuroides, 312 h, rate 250 g/ha, evaluated after 13 days, 100=total damage to plant, 0=no damage to plant
Protocol: as §1, with “Pre-Emergence” for “Post-Emergence”

Avena fatua (AVEFA) [7] = assay: as above; details: Avena fatua, 312 h, rate 250 g/ha, evaluated after 13 days, 100=total damage to plant, 0=no damage to plant
Protocol: as §1, with “Pre-Emergence” for “Post-Emergence”

Lolium perenne (LOLPE) [8] = assay: as above; details: Lolium perenne, 312 h, rate 250 g/ha, evaluated after 13 days, 100=total damage to plant, 0=no damage to plant
Protocol: as §1, with “Pre-Emergence” for “Post-Emergence”

Compound	pest or weed control at 250 g/ha [1]	pest or weed control at 250 g/ha [2]	pest or weed control at 250 g/ha (Avena fatua (AVEFA) [3])	pest or weed control at 250 g/ha (Lolium perenne (LOLPE) [4])	pest or weed control at 250 g/ha [5]	pest or weed control at 250 g/ha [6]	pest or weed control at 250 g/ha (Avena fatua (AVEFA) [7])	pest or weed control at 250 g/ha (Lolium perenne (LOLPE) [8])
Cc1cc(Oc2ccc(F)cc2)cc(C)c1C1=C(O)[C@H]2[C@@H](C1=O)[C@@H]1CC[C@H]2O1 [Compound A-15]	100%	90%	90%	90%	70%	60%	70%	90%
Cc1cc(Oc2ccccc2F)cc(C)c1C1=C(O)[C@H]2[C@@H](C1=O)[C@@H]1CC[C@H]2O1 [Compound A-5]	90%	60%	50%	70%	60%	40%	30%	50%
Cc1cc(Oc2ncc(Cl)cc2F)cc(C)c1C1=C(O)C2C(C1=O)[C@H]1CC[C@@H]2CC1 (stereo partly drawn) [Compound A-20, 2-[4-(5-chloro-3-fluoropyridin-2-yloxy)-2,6-dimethylphenyl]hexahydro-4,7-ethanoindene-1,3-dione]	70%	50%	20%	30%	60%	40%	0%	20%
CCc1cc(Oc2ccc(Cl)cc2)ccc1C1=C(O)[C@H]2[C@@H](C1=O)[C@@H]1CC[C@H]2O1 [Compound A-2]	100%	90%	90%	80%	30%	30%	0%	60%
Cc1cc(Oc2ccc(Cl)cc2)cc(C)c1C1=C(O)CC(CC2CCOCC2)C1=O (stereo not drawn) [Compound A-34]	80%	80%	60%	70%	70%	80%	30%	70%
CCc1cc(Oc2ccc3cc(Cl)ccc3n2)ccc1C1=C(O)[C@H]2[C@@H](C1=O)[C@@H]1CC[C@H]2O1 [Compound A-38]	100%	90%	80%	80%	100%	80%	0%	70%
Cc1cc(Oc2ccc(Br)cc2F)cc(C)c1C1=C(O)[C@H]2[C@@H](C1=O)[C@@H]1CC[C@H]2O1 [Compound A-3, meso-(1R,2S,6R,7S)-4-(4-[4-bromo-2-fluorophenoxy]-2,6-dimethylphenyl)-10-oxatricyclo[5.2.1.0^2,6]decane-3,5-dione]	100%	100%	90%	90%	90%	80%	30%	80%
Cc1cc(Oc2cc(F)ccc2F)cc(C)c1C1=C(O)[C@H]2[C@@H](C1=O)[C@@H]1CC[C@H]2O1 [Compound A-9]	90%	60%	40%	60%	50%	20%	0%	60%
Cc1cc(Oc2ccccc2Cl)cc(C)c1C1=C(O)[C@H]2[C@@H](C1=O)[C@@H]1CC[C@H]2O1 [Compound A-10]	40%	10%	0%	30%	10%	10%	0%	20%
Cc1cc(Oc2ccc(Cl)cc2F)cc(C)c1C1=C(O)[C@H]2[C@@H](C1=O)[C@@H]1CC[C@H]2O1 [Compound A-7]	100%	100%	90%	100%	100%	70%	90%	90%
Cc1cc(Oc2ncc(Cl)cc2Cl)cc(C)c1C1=C(O)[C@H]2[C@@H](C1=O)[C@@H]1CC[C@H]2O1 [Compound A-26]	90%	100%	70%	100%	100%	90%	60%	100%
Cc1cc(Oc2cccc(F)c2F)cc(C)c1C1=C(O)[C@H]2[C@@H](C1=O)[C@@H]1CC[C@H]2O1 [Compound A-8]	90%	80%	40%	80%	40%	40%	0%	30%
Cc1cc(Oc2ccc(F)cc2)cc(C)c1C1=C(OC(=O)C(C)(C)C)[C@H]2[C@@H](C1=O)[C@@H]1CC[C@H]2O1 [Compound P-4]	90%	90%	60%	70%	100%	80%	70%	90%
Cc1cc(Oc2ccc(F)cc2F)cc(C)c1C1=C(O)[C@H]2[C@@H](C1=O)[C@@H]1CC[C@H]2O1 [Compound A-6]	90%	90%	70%	70%	70%	70%	30%	80%
Cc1cc(Oc2cccc(Cl)c2)cc(C)c1C1=C(O)[C@H]2[C@@H](C1=O)[C@@H]1CC[C@H]2O1 [Compound A-14]	80%	70%	30%	70%	80%	40%	0%	70%
